In experiment [1] the test system is ERα transcriptional activity in T47D breast cancer cells. Kind of experiment: Cell based assay #2: ERE-luciferase reporter, E2-induced ERα activation by Ubc9 C93S. Conditions: Ubc9 C93S (SUMO-independent), E2 1 μM. The protocol:
T47D cells (5×10^5) were plated in 6-well plates for 24 hours. The cells were washed twice in PBS followed by the addition of phenol red free DMEM containing 5% charcoal-stripped FBS for 48 hrs before transfection. The cells were transfected with 1 μg of each of the indicated plasmids (with a total of 2.5 μg DNA) using lipofectamine 2000 (Life Technology, USA). The cells were induced with 1 μM of E2 4 hours after transfections, harvested after an additional 40 hrs and assayed for luciferase activity following the manufacturer's instructions. Each set of experiments was performed in triplicate and repeated a least three times.
On the technique in general: In a reporter assay the amount or activity of a reporter protein is the signal.

Another experiment addresses T1, Ubc9 (Homo sapiens, UniProt P63279).
T1 construct: made in house; host or cells: E. coli
Kind of experiment: GST capture (pull-down) assay of binding to Ubc9. To be noted: in vitro translated full length protein. The source says:
GST-Ubc9 and GST-ERα (337-379) were expressed and purified from E. coli as described previously (Wang H, Shao N, Ding O M, Cui J, Reddy E S P, Rao V N: BRCA1 proteins are transported to the nucleus in the absence of serum and splice variants BRCA1a, BRCA1b are tyrosine phosphoprotein that associate with E2F, cyclins and cyclin dependent kinases. Oncogene 15, 143-157: 1997.). For in vitro protein binding assay 35 S-Methionine-labeled in vitro translated full length BRCA1, BRCA1a (Chai Y L, Cui J, Chipitsyna G, Liao B, Lui S, Aysola K et al.: C-Fos oncogene regulator Elk-1 interacts with BRCA1 splice variants BRCA 1a/1b and enhances BRCA1a/1b mediated growth suppression in breast cancer cells. Oncogene 20: 1357-1367, 2001.), BRCA1b, BRCA1 Mut#1, BRCA1 Mut#4, BRCA1 1-182, BRCA1 1-182 Mut#1 and BRCA1 1-182 Mut 4 proteins were diluted in binding buffer (20 mM Tris-HCl (pH7.5), 150 mM NaCl, 0.1% Tween 20). The proteins were precleared with GSH beads for 30 min and then incubated with GST or various GST-ER (337-379) proteins beads for 2 hours at 4° C. The beads were then washed three times with binding buffer followed by elution of the bound proteins with SDS sample buffer and loaded on a 15% SDS-PAGE. The gels were fixed, treated with enhance, dried and exposed 9 to X-ray films) and scanned using a Fuji BioImaging analyzer. […]

T1 sequence (P63279 whole entry, species assumed): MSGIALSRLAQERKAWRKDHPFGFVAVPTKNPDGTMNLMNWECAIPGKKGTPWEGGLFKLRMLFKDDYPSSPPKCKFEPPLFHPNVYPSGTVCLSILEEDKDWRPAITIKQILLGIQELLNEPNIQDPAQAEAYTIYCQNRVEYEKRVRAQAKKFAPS

For “BRCA1 Mutant #1: BRCA1 point mutant 1; apparently SUMO acceptor site mutation lysine (K) 109 to arginine (R)”, the “inhibition of E2-mediated ERα transcription activation by Ubc9/C93S” value (“inhibition” for short) in experiment [1] is “unlike their respective Mut #1 and Mut#4, inhibit”.

As to “BRCA1 Mutant #4: full length BRCA1 with RING domain cancer-predisposing mutation C61G”, in the experiment with Ubc9, the “binding to Ubc9” value is “did not observe any significant binding”. The “inhibition” value in experiment [1] was “unlike their respective Mut #1 and Mut#4, inhibit”.

As to “BRCA1: full-length product of the BRCA1 (breast cancer 1) tumor suppressor gene”, the “inhibition” value in experiment [1] was “inhibit E2-mediated ERα transcription activation by Ubc9/C93S”.

Values taken from patent US8372580B2, “BRCA1 function-based cellular assays” (Morehouse School of Medicine, priority 2008, dated 2013).
